# Experiments:
# PGE2 receptor 1 (EP1) = target: T1, PGE2 receptor 1 (EP1) (Homo sapiens, UniProt P34995); assay: EP1 receptor calcium agonist assay (HEK293T cells); assay type: cell-based; set-up: key to EC50 Fold Different from Treprostinil, EP1 Receptor: NC = too inactive to realistically calculate; conditions: for EP1 Relative to Tre: Table 22, relative to treprostinil EC50 values, * partial agonists or ambiguous dose-response curves
# T1 sequence (P34995 1-402): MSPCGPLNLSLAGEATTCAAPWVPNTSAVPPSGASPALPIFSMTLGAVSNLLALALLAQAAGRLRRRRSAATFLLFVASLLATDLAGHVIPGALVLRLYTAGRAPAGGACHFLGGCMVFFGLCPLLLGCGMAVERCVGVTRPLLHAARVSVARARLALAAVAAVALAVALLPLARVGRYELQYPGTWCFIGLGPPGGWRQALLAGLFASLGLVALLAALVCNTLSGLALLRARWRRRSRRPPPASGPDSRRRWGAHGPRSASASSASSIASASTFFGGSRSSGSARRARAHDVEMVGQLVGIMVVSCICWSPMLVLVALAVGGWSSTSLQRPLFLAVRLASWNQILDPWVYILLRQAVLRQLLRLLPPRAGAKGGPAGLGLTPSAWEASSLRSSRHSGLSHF
# Description: Calcium assay kit: Multiscreen™ Calcium 1.0 No Wash Kit (Multispan, Inc., Cat #MSCA01-1)
# • EP1 Calcium and DP1 cAMP Assays: HBSS plus 20 mM HEPES • EP2 and IP1 cAMP Assays: 1 mM IBMX in HBSS plus 20 mM HEPES Instruments: FlexStation III (Molecular Devices) and FLIPR 384 (Molecular Devices)
# Cells were thawed from frozen cells and resuspended in assay buffer at desired concentrations. cAMP or Calcium assays were performed according to the manufacturer's protocol using Multiscreen™ TR-FRET cAMP 1.0 No Wash Assay Kit or Multiscreen™ Calcium 1.0 No Wash Kit.
# Calcium Assay: Cells were seeded in a 384-well plate at an appropriate density. The calcium assay was conducted according to the manufacturer's protocols (Multiscreen Calcium 1.0 No Wash Assay Kit). The calcium dye loading buffer was added to the cells and incubated for 1 hour at 37° C. For agonist mode, cells were injected with Iloprost control agonist or test compound by FLIPR and calcium mobilization was monitored for 180 seconds with compound injected into the wells at the 19th second. Fluorescent emissions were read at 525 nm with excitation at 490 nm in a FLIPR 384 instrument (Molecular Devices).
# Calcium Assay: Calcium assay results are expressed as “RFU” as defined in figure below. Data are represented in Mean±SEM. Dose-response curves were fitted using “Sigmoidal dose-response (variable slope)” function in GraphPad Prism 6. EC50 values were calculated based on the fitted curves.
# Prostaglandin receptor activity assessments with treprostinil and treprostinil analogues have been conducted, and a historical, positive control agonist for these receptors, iloprost (for IP, EP2 and EP1) or PGD2 (for DP1), was also included. These studies used cell lines overexpressing either human IP, EP2 or DP1, or EP1 receptors, and following incubation with varying concentrations of compounds, cAMP levels were measured using Fluorescence Resonance Energy Transfer (FRET). The 665/620 (acceptor/donor emission signals) ratio is inversely proportional to the concentration of cAMP.
# [1] = Plasma stability, dog plasma; assay type: in vitro ADME, Beagle dog; conditions: for Formation of Treprostinil, Concentration 0 min / Formation of Treprostinil, Concentration 15 min / Formation of Treprostinil, Concentration 30 min / Formation of Treprostinil, Concentration 60 min / Formation of Treprostinil, Concentration 120 min: prodrug dosed 1 μM
# Description: (§1) Studies were carried out in mixed-gender human plasma male Sprague-Dawley rat plasma, and male Beagle dog plasma. All plasma was obtained from Bioreclamation and collected on K2EDTA. Plasma was adjusted to pH 7.4 prior to initiating the experiments. DMSO stocks were first prepared for the test articles. […] The vials were kept in a benchtop Thermomixer® for the duration of the experiment. […] Samples were stored at 4° C. until the end of the experiment. After the final time point was sampled, the plate was mixed and then centrifuged at 3000 rpm for 10 minutes.
# [2] = Stability in simulated intestinal fluid; assay type: in vitro ADME; conditions: for Half-life / Percent Remaining 0 min / Percent Remaining 15 min / Percent Remaining 30 min / Percent Remaining 60 min / Percent Remaining 120 min: SIF pH 6.8 with pancreatin, 1 μM, 37° C.; for Formation of Treprostinil, Concentration 0 min / Formation of Treprostinil, Concentration 15 min / Formation of Treprostinil, Concentration 30 min / Formation of Treprostinil, Concentration 60 min / Formation of Treprostinil, Concentration 120 min: SIF, prodrug dosed 1 μM
# Description: Studies were carried out in simulated intestinal fluid (SIF). SIF was prepared by dissolving 6.8 g of KH2PO4 in 250 mL of water, mixing, and then adding 77 mL of 0.2 N NaOH and […] of water. […] DMSO stocks were first prepared for the test articles. […] The vials were kept in a benchtop Thermomixer® for the duration of the experiment. A separate tube was dosed for each time point in each matrix. […] Samples were mixed and then immediately stored at 4° C. until the end of the experiment. After the final time point was sampled, the plate was mixed and then centrifuged at 3000 rpm for 10 minutes.
# [3] = Plasma stability, rat plasma; assay type: in vitro ADME, Sprague-Dawley rat; conditions: for Formation of Treprostinil, Concentration 0 min / Formation of Treprostinil, Concentration 15 min / Formation of Treprostinil, Concentration 30 min / Formation of Treprostinil, Concentration 60 min / Formation of Treprostinil, Concentration 120 min: prodrug dosed 1 μM
# Description: as §1
# [4] = Plasma stability, human plasma; assay type: in vitro ADME; conditions: for Formation of Treprostinil, Concentration 0 min / Formation of Treprostinil, Concentration 15 min / Formation of Treprostinil, Concentration 30 min / Formation of Treprostinil, Concentration 60 min / Formation of Treprostinil, Concentration 120 min: prodrug dosed 1 μM
# Description: as §1
compound,measurement,setting,value
CCCCCC(CCC1C(O)CC2Cc3c(cccc3OCC(=O)O)CC21)OC(=O)CC (centres unmarked) [Prodrug LV],EP1 Relative to Tre,PGE2 receptor 1 (EP1),122x*
"CCCCCC(CCC1C(OC(=O)CC)CC2Cc3c(cccc3OCC(=O)O)CC21)OC(=O)CC (centres unmarked) [Prodrug LXX, treprostinil dipropionate]",Half-life,"[1]; 1 μM, 37° C.",>2 h
same,Percent Remaining 0 min,"[1]; 1 μM, 37° C.",100%
same,Percent Remaining 15 min,"[1]; 1 μM, 37° C.",103%
same,Percent Remaining 30 min,"[1]; 1 μM, 37° C., 30 min",116%
same,Percent Remaining 60 min,"[1]; 1 μM, 37° C.",97.4%
same,Percent Remaining 120 min,"[1]; 1 μM, 37° C.",91.4%
same,"Formation of Treprostinil, Concentration 0 min",[1],0 µM
same,"Formation of Treprostinil, Concentration 15 min",[1],0 µM
same,"Formation of Treprostinil, Concentration 30 min",[1]; 30 min,0 µM
same,"Formation of Treprostinil, Concentration 60 min",[1],0 µM
same,"Formation of Treprostinil, Concentration 120 min",[1],0 µM
same,Half-life,[2],>2 h
same,Percent Remaining 0 min,[2],100%
same,Percent Remaining 15 min,[2],97.2%
same,Percent Remaining 30 min,[2],104%
same,Percent Remaining 60 min,[2],93.6%
same,Percent Remaining 120 min,[2],86.2%
same,"Formation of Treprostinil, Concentration 0 min",[2],0 µM
same,"Formation of Treprostinil, Concentration 15 min",[2],0 µM
same,"Formation of Treprostinil, Concentration 30 min",[2],0 µM
same,"Formation of Treprostinil, Concentration 60 min",[2],0.00415 µM
same,"Formation of Treprostinil, Concentration 120 min",[2],0.0720 µM
same,"EC50 Fold Different from Treprostinil, EP1 Receptor","PGE2 receptor 1 (EP1); Table 18, * partial agonists or odd dose-response curves",NC
same,Half-life,"[3]; 1 μM, 37° C.",1.7 h
same,Percent Remaining 0 min,"[3]; 1 μM, 37° C.",100%
same,Percent Remaining 15 min,"[3]; 1 μM, 37° C.",98.3%
same,Percent Remaining 30 min,"[3]; 1 μM, 37° C., 30 min",80.3%
same,Percent Remaining 60 min,"[3]; 1 μM, 37° C.",69.3%
same,Percent Remaining 120 min,"[3]; 1 μM, 37° C.",45.0%
same,"Formation of Treprostinil, Concentration 0 min",[3],0 µM
same,"Formation of Treprostinil, Concentration 15 min",[3],0.00392 µM
same,"Formation of Treprostinil, Concentration 30 min",[3]; 30 min,0.0101 µM
same,"Formation of Treprostinil, Concentration 60 min",[3],0.0331 µM
same,"Formation of Treprostinil, Concentration 120 min",[3],0.0768 µM
same,Half-life,"[4]; 1 μM, 37° C.",>2 h
same,Percent Remaining 0 min,"[4]; 1 μM, 37° C.",100%
same,Percent Remaining 15 min,"[4]; 1 μM, 37° C.",92.4%
same,Percent Remaining 30 min,"[4]; 1 μM, 37° C., 30 min",102%
same,Percent Remaining 60 min,"[4]; 1 μM, 37° C.",93.3%
same,Percent Remaining 120 min,"[4]; 1 μM, 37° C.",103%
same,"Formation of Treprostinil, Concentration 0 min",[4],0 µM
same,"Formation of Treprostinil, Concentration 15 min",[4],0 µM
same,"Formation of Treprostinil, Concentration 30 min",[4]; 30 min,0 µM
same,"Formation of Treprostinil, Concentration 60 min",[4],0 µM
same,"Formation of Treprostinil, Concentration 120 min",[4],0 µM
"CCCCCC(CCC1C(OC(=O)OC)CC2Cc3c(cccc3OCC(=O)O)CC21)OC(=O)OC (centres unmarked) [Prodrug LXXI, treprostinil dicarbonate]",Half-life,[2],>2 h
same,Percent Remaining 0 min,[2],100%
same,Percent Remaining 15 min,[2],96.2%
same,Percent Remaining 30 min,[2],100%
same,Percent Remaining 60 min,[2],91.9%
same,Percent Remaining 120 min,[2],83.5%
CCCCCC(CCC1C(O)CC2Cc3c(cccc3OCC(=O)O)CC21)OP(=O)(O)O (centres unmarked) [Prodrug VI],EP1 Relative to Tre,PGE2 receptor 1 (EP1),5x
same,EP1 Relative to Tre,PGE2 receptor 1 (EP1); listed as Prodrug VI repeat,42x
CCCCCC(CCC1C(O)CC2Cc3c(cccc3OCC(=O)O)CC21)OC(C)=O (centres unmarked) [Prodrug XLIII],EP1 Relative to Tre,PGE2 receptor 1 (EP1),20x*
treprostinil diacetate [Prodrug LXXII],Half-life,"[1]; 1 μM, 37° C.",>2 h
same,Percent Remaining 0 min,"[1]; 1 μM, 37° C.",100%
same,Percent Remaining 15 min,"[1]; 1 μM, 37° C.",96.7%
same,Percent Remaining 60 min,"[1]; 1 μM, 37° C.",107%
same,Percent Remaining 120 min,"[1]; 1 μM, 37° C.",82.9%
same,"Formation of Treprostinil, Concentration 0 min",[1],0 µM
same,"Formation of Treprostinil, Concentration 15 min",[1],0 µM
same,"Formation of Treprostinil, Concentration 30 min",[1]; 30 min,0 µM
same,"Formation of Treprostinil, Concentration 60 min",[1],0 µM
same,"Formation of Treprostinil, Concentration 120 min",[1],0 µM
same,Half-life,[2],>2 h
same,Percent Remaining 0 min,[2],100%
same,Percent Remaining 15 min,[2],111%
same,Percent Remaining 60 min,[2],108%
same,Percent Remaining 120 min,[2],109%
same,"Formation of Treprostinil, Concentration 0 min",[2],0 µM
same,"Formation of Treprostinil, Concentration 15 min",[2],0 µM
same,"Formation of Treprostinil, Concentration 30 min",[2],0 µM
same,"Formation of Treprostinil, Concentration 60 min",[2],0 µM
same,"Formation of Treprostinil, Concentration 120 min",[2],0.0126 µM
same,Half-life,"[3]; 1 μM, 37° C.",>2 h
same,Percent Remaining 0 min,"[3]; 1 μM, 37° C.",100%
same,Percent Remaining 15 min,"[3]; 1 μM, 37° C.",107%
same,Percent Remaining 60 min,"[3]; 1 μM, 37° C.",83.6%
same,Percent Remaining 120 min,"[3]; 1 μM, 37° C.",79.7%
same,"Formation of Treprostinil, Concentration 0 min",[3],0 µM
same,"Formation of Treprostinil, Concentration 15 min",[3],0 µM
same,"Formation of Treprostinil, Concentration 30 min",[3]; 30 min,0 µM
same,"Formation of Treprostinil, Concentration 60 min",[3],0.00595 µM
same,"Formation of Treprostinil, Concentration 120 min",[3],0.0151 µM
same,Half-life,"[4]; 1 μM, 37° C.",>2 h
same,Percent Remaining 0 min,"[4]; 1 μM, 37° C.",100%
same,Percent Remaining 15 min,"[4]; 1 μM, 37° C.",106%
same,Percent Remaining 60 min,"[4]; 1 μM, 37° C.",102%
same,Percent Remaining 120 min,"[4]; 1 μM, 37° C.",86.5%
same,"Formation of Treprostinil, Concentration 0 min",[4],0 µM
same,"Formation of Treprostinil, Concentration 15 min",[4],0 µM
same,"Formation of Treprostinil, Concentration 30 min",[4]; 30 min,0 µM
same,"Formation of Treprostinil, Concentration 60 min",[4],0 µM
same,"Formation of Treprostinil, Concentration 120 min",[4],0 µM

# From patent US12491170B2, “Stable treprostinil prodrugs” (United Therapeutics Corporation, priority 2020, dated 2025)
